Results taken from patent EP1372636B1, “METRONOMIC DOSING OF TAXANES FOR INHIBITING TUMOR GROWTH” (Bristol-Myers Squibb Company, priority 2001, dated 2002).
Read-outs that look alike come from different tables or passages of the source.

What was measured:
[1] = test system: human umbilical vein endothelial cell (HUVEC); assay: HUVEC proliferation (3H-thymidine incorporation); type: cell-based; conditions: for IC50: Homo sapiens, HUVEC, read-out: IC50 in Cells HUVEC
Experimental: (§4) Primary human umbilical vein endothelial cells (HUVEC) were purchased from CLONETICS Inc. (San Diego, CA) and used at passage 2 to 3. Proliferation was measured using ^3H-thymidine incorporation in cells by pulsing twenty-four hours prior to harvesting cell cultures. The human breast carcinoma line H3396 was used to assess activity of compound on tumor cells. Cells (2 x 10^3) were plated on collagen IV coated 96 well plates. Twenty-four hours later, compounds were added at varying concentrations. After 48 hours, ^3H-thymidine was added and cells were allowed to incorporate this label over a twenty-four hour period. Cellular extracts were harvested onto glass filters and incorporated radioactivity was determined by counting in a Beta scintillation counter. The IC50, defined as the drug concentration that causes 50% inhibition of ^3H-thymidine incorporation, was extrapolated from the plotted data.

[2] = test system: human breast carcinoma line H3396; assay: H3396 tumor cell proliferation (3H-thymidine incorporation); type: cell-based
Experimental: as §4

[3] = test system: HUVEC; assay: In vitro HUVEC tube formation on […]; type: cell-based, human; parameters: key: C= complete; P= partial
Experimental: Angiogenesis results in a network of functional blood vessels that contain red blood cells. In vitro assays that, in part, mimic that process have been established. Primary endothelial cells such as HUVEC when placed on […] (Collaborative Research, Inc.) form a three-dimensional network of tubes that align into cords. In this assay system, tube formation was evaluated on an extracellular protein matrix consisting of […] diluted 1:1 with culture media (EBM-2; CLONETICS, Inc.) and allowed to polymerize for 60 minutes at 37 C. […] Eighteen hours following the plating of cells, the media was removed and cultures were fixed in formalin. Inhibition of tubes on […] is evaluated on an inverted microscope using phase contrast lighting. To determine the effect of compounds in this assay, a descriptive approach was developed. […] Partial inhibition is defined as an incomplete network with a large number of single cells. Complete inhibition is defined as greater than 99% of cells occurring as single cells with no elongated or branching structures. The number of single cells occurring after vehicle treatment (control) is subtracted from the total number of single cells occurring in the treated groups prior to assessing the effects of test compounds for establishing background effects.

[4] = In vivo […] plug angiogenesis model (number of endothelial cells in plugs); parameters: species or system athymic (nu/nu) Balb/c mice; conditions: mouse, in vivo, read-out: maximum tolerated dose (MTD)
Experimental: (§1) LX1 human lung tumor fragments that were maintained by serial subcutaneous passage in athymic (nu/nu) Balb/c mice were implanted subcutaneously as small fragments approximately 0.1 mm^3 in size. Tumor volume doubling time for this tumor in these studies was 2.8 days. When tumors reached the size range of 150-200 mm^3, liquid […] was injected subcutaneously on the side contralateral to the tumor. Treatment was initiated 24 hours later at varying doses and schedules. Prior to implanting, […] is prepared by placing solidified […] on ice overnight at 4 C in accordance with the method described by Passiniti et al. (Lab. Invest. 1992 67:519-28). At the liquid phase and while on ice, VEGF and bFGF (Peprotech, Inc. Rocky Hill, NJ) is added to the […] at final respective concentrations of 75 ng/ml and 300 ng/ml. Stock solutions of these growth factors are made fresh at […] in PBS. Twenty-four hours following final treatment, animals were sacrificed by cervical dislocation and […] plugs from treated and control animals were excised and fixed for at least 48 hours in 10% neutral buffered formalin. These plugs were then processed for paraffin embedding and sectioned at 5 µm thickness followed by staining with hematoxylin and eosin prior to quantitative analysis. The number of endothelial cells in plugs was quantitated using the IMAGEPRO PLUS software (Media Cybernetics, Inc., Silver Spring, MD) at a magnification of 20x. Fifty fields of view from each plug were used for counting the number of endothelial cells. The number of cells were summarized and compared statistically to controls.
(§2) Angiogenesis is evaluated in these plugs as the number of endothelial cells migrating into plugs from compound treated groups relative to the vehicle treated group. Tumors were implanted for the purpose of monitoring the anti-tumor effects of these compounds throughout these studies in order to assure compound efficacy at the therapeutic doses.
(§3) For TAXOL, normal saline was used as the diluent and delivery was made intravenously. For the oral taxane of Formula I, sterilized water was used as the diluent and delivery was by oral gavage.

[5] = test system: endothelial cells occurring in MATRIGEL plugs; assay: as above; parameters: species or system athymic (nu/nu) Balb/c mice; conditions: q2dx5; for reduction of cell number in plugs: oral gavage
Experimental: as §1, §2, §3

[6] = Oral bioavailability in the rat; type: in vivo
[7] = Oral bioavailability in the dog; type: in vivo
[8] = test system: L2987 human lung tumor
Excerpt: L2987 human lung tumors were implanted and allowed to reach 50 to 100 mm^3 before drug administration.

[9] = test system: mammary 16/C murine carcinoma; assay: Staged subcutaneous mammary 16/C carcinoma in mice, gross log cell kill; type: in vivo, C3H mice
Excerpt: The final concentrations of each component of the vehicle was as follows: CREMOPHOR 10%; ethanol 10%; aqueous 80%.
C3H conventional mice were purchased from Harlan-Sprague Dawley (Indianapolis, IN) and fed mouse chow and water ad libitum.
The metastatic mammary 16/C murine carcinoma was propagated biweekly in C3H mice. Experiments were initiated by subcutaneous insertion by trocar of tumor fragments.
For in vivo tumor testing, the C3H mice were implanted subcutaneously with mammary 16/C tumor fragments. All treatments were initiated on Day 10 post-tumor implant, except for an untreated control group. All groups contained 8 mice. Tumors were measured once or twice weekly and dimensions were converted to weights using the formula Weight (milligrams)= a x b^2, where a=length and b=width (in millimeters). The median time for tumors within each group of mice to reach 1 gram was determined and the delays in median time to reach 1 gram tumor target size for treated (T) versus control (C) groups was calculated. These delays in tumor growth (T-C value in days) were further converted to gross log cell kill (LCK) values using the formula T-C/(tumor volume doubling time, TVDT, of the control group) x (3.32). A LCK of greater than or equal to 1 LCK was considered an active result. Cures were assessed at the end of each experiment and defined in the absence of a tumor mass of greater than 35 milligrams. Experiments were terminated more than 10 x TVDT following the completion of all treatments.

For COC(=O)O[C@@]12CO[C@@H]1C[C@H](O)[C@@]1(C)C(=O)[C@H](OC(C)=O)C3=C(C)[C@@H](OC(=O)[C@H](O)[C@@H](NC(=O)OC(C)(C)C)C(C)(C)C)C[C@@](O)([C@@H](OC(=O)c4ccccc4)[C@H]21)C3(C)C [Formula I, 3'-tert-Butyl-3'-N-tert-butyloxycarbonyl-4-deacetyl-3'-dephenyl-3'-N-debenzoyl-4-O-methoxycarbonyl-paclitaxel], the IC50 [1] was 2 nM, the IC50 ([2]; H3396, read-out: IC50 in Cells H3396, 3H-thymidine incorporation, two separate experiments (two columns)) was 2 nM and the “Inhibition of HUVEC Tube Formation on MATRIGEL” value (from here on “Inhibition”) ([3]; 0.0005µM) was “P”. The “Inhibition” value ([3]; 0.0050µM) was “P”, the “Inhibition” value ([3]; 0.0500µM) was “C” and the “Inhibition” value ([3]; 0.5000µM) was “C”. For the same compound, the “Inhibition” value ([3]; 5.000µM) was “C”, the MTD ([4]; po) was 60 mg/kg and the “reduction of cell number in plugs” value ([5]; 18 mg/kg) was “greater than 50%”. The “reduction of cell number in plugs” value ([5]; 36 mg/kg) was “greater than 50%”, the “reduction of cell number in plugs” value ([5]; 60 mg/kg (MTD)) was “greater than 50%” and the oral bioavailability [6] was “good”. The oral bioavailability [7] was “good”, the weight loss ([8]; 20 mg/kg orally, metronomic schedule q2dx15) was “no weight loss was observed” and the tumor growth ([8]; 20 mg/kg orally, metronomic schedule q2dx15 (cumulative 300 mg/kg)) was “suppressed tumor growth”. For the same compound, the weight loss ([8]; 60 mg/kg orally, standard schedule q2dx5) was “weight loss was also observed” and the anti-tumor response ([8]; 60 mg/kg orally, standard schedule q2dx5 (cumulative 300 mg/kg), compared with metronomic regime) was “greater anti-tumor response”.
In the case of CC(=O)O[C@H]1C(=O)[C@@]2(C)[C@H]([C@H](OC(=O)c3ccccc3)[C@]3(O)C[C@H](OC(=O)[C@H](O)[C@@H](NC(=O)c4ccccc4)c4ccccc4)C(C)=C1C3(C)C)[C@]1(OC(C)=O)CO[C@@H]1C[C@@H]2O [TAXOL, paclitaxel], the IC50 ([1]; 3H-thymidine incorporation, two separate experiments (two columns)) is reported as 3 nM, the H3396/HUVEC ([1]; ratio of IC50 in H3396 to IC50 in HUVEC) is reported as 0.88 and the IC50 ([2]; H3396, 3H-thymidine incorporation, two separate experiments (two columns), read-out: IC50 in Cells H3396) is reported as 3 nM. For the same compound, the “Inhibition” value ([3]; 0.0005µM) was “P”, the “Inhibition” value ([3]; 0.0050µM) was “P” and the “Inhibition” value ([3]; 0.0500µM) was “C”. The “Inhibition” value ([3]; 0.5000µM) was “C”, the “Inhibition” value ([3]; 5.000µM) was “C” and the MTD ([4]; athymic (nu/nu) Balb/c, intravenous) was 24 mg/kg. For the same compound, the “reduction in cell number in MATRIGEL plugs compared to control groups” value ([5]; 24 mg/kg (MTD), intravenously) was “greater than 50%”, the “Gross LCK” value ([9]; Paclitaxel 20 mg/kg/inj qd 10-14 iv, no Formula I, Paclitaxel 20 mg/kg/inj qd 32-36 iv) was 4.5 and the “Gross LCK” value ([9]; Paclitaxel 20 mg/kg/inj qd 10-14 iv, no Formula I, Paclitaxel 30 mg/kg/inj qd 32-36 iv) was 4.7. For the same compound, the “Gross LCK” value ([9]; Paclitaxel 30 mg/kg/inj qd 10-14 iv alone (single course)) was 1.9, the cures/total ([9]; Paclitaxel 30 mg/kg/inj qd 10-14 iv alone, Cures assessed on Day 60) was 2/8 and the “Gross LCK” value ([9]; Paclitaxel 45 mg/kg/inj qd 10-14 iv alone (single course)) was 1.9. For the same compound, the cures/total ([9]; Paclitaxel 45 mg/kg/inj qd 10-14 iv alone, Cures assessed on Day 60 post tumor implant) was 1/8, the cures/total ([9]; Paclitaxel 20 qd 10-14 iv, no Formula I, Paclitaxel 30 qd 32-36 iv, Cures assessed on Day 88) was 1/8 and the cures/total ([9]; Paclitaxel 30 qd 10-14 iv, no Formula I, Paclitaxel 30 qd 32-36 iv, Cures assessed on Day 88 post-tumor implant, listed as Paclitaxel) was 2/8. The cures/total ([9]; Paclitaxel 30 qd 10-14 iv, no Formula I, Paclitaxel 30 qd 32-36 iv, Cures assessed on Day 88 post-tumor implant, listed as paclitaxel) was 2 of 8 and the MTD regimen ([9]; qdx5, iv, beginning on Day 10 post-tumor implant) was 45 mg/kg/injection.
